Experiments:
[1] = Human liver microsomal stability test, determination of inherent clearance; type: in vitro ADME; conditions: 37° C.; for half-life at 1 μM: both sexes, 1 μM compound, human liver microsomes 0.4 mg/mL protein, 1.25 mM NADPH, 1 hour, read-out: Human liver microsome T1/2 (converted); for Human inherent CL: calculated from declination slope of compound concentration in human liver microsomes, 1 μM
Description: 1 μM of the tested compound was incubated for 1 hour together with human liver microsomes of mixed genders (0.4 mg/mL protein) in the presence of 1.25 mM NADPH at 37° C. to determine the inherent clearance. The disappearance of the tested compound was monitored by LC-MS/MS at 0, 10, 20, 30, 45, and 60 minute. By using the standard method reported in literatures, the declination slope of the concentration of the compound was used to calculate the inherent clearance of human.

JAK2 kinase = JAK2 kinase (Homo sapiens (Human), UniProt O60674); assay: Assay for enzymatic activity (IC50), HTRF kinase assay; type: biochemical; conditions: ATP at Km, 120 min at 23° C.
Sequence of JAK2 kinase (O60674 whole entry): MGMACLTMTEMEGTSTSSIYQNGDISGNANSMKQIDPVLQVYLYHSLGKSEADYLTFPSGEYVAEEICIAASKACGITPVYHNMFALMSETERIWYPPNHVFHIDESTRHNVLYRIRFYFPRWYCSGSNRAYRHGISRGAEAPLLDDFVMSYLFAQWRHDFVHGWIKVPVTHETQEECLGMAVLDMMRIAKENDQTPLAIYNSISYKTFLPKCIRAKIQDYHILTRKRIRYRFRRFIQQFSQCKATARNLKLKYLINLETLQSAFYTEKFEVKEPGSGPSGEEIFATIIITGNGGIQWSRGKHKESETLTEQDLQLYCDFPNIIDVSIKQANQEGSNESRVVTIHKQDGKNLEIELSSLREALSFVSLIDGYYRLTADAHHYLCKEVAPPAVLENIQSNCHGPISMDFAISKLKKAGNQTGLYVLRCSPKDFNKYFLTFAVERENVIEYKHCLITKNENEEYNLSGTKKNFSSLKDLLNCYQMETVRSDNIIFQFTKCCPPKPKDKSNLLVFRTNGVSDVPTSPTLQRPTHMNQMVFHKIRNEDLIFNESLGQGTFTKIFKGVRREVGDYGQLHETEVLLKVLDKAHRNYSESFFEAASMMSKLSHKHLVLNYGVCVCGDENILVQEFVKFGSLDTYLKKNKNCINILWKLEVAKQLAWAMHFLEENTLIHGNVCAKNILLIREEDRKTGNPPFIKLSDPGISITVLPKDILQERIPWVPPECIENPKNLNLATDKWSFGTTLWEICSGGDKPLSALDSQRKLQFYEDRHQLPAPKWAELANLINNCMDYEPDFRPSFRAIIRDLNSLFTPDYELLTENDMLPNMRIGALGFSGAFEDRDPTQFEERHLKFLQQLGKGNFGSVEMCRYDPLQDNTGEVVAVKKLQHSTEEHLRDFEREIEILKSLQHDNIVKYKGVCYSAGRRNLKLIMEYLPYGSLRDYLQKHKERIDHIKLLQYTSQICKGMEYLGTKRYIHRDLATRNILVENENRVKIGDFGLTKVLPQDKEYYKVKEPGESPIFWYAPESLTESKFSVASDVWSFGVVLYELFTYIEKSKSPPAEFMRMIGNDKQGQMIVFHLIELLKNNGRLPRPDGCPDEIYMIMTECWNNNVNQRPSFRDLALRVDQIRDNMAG
Description: A testing platform for kinase activity of JAK2 was established based on Homogeneous Time-Resolved Fluorescence (HTRF) assay, and the activities of the compounds were tested using the platform. The compounds were subjected to three-fold gradient dilutions with 100% DMSO with a starting concentration of 1 mM (11 dilutions in total). 4 μL of each dilution was added to 96 μL of reaction buffer (50 mM HEPES, pH 7.4, 10 mM MgCl2, 1 mM EGTA, 0.01% Tween-20, 0.005% BAS, 2 mM DTT) and mixed homogeneously. […] The mixture was mixed homogeneously by centrifugation. […] The plate was incubated in the incubator for 1 hr, and then the fluorescence values were read on Envision (available from PerkinElmer). The excitation wavelength was 320 nm, and the emission wavelengths for detection were 665 nm and 620 nm. The enzymatic activity was represented by a ratio of the two readout at the two emission wavelengths. The enzymatic activity for each compound was tested at 11 concentrations, and IC50 values of the compounds were obtained by calculating the data using GraFit6.0 software (Erithacus Software)

[2] = Plasma protein binding assay (Rapid Equilibrium Dialysis), determination of free moiety; type: in vitro ADME; conditions: equilibrium dialysis 5 hours in human plasma at 37° C.; compounds II, III, IV at 10 μM, compound I at 1 μM and 10 μM
Description: Protein binding to the tested compounds was determined by equilibrium dialysis using a Rapid Equilibrium Dialysis (RED) Device system. The dialysis was performed for 5 hours in human plasma at 37° C. The compound II, the compound III, and the compound IV were incubated at 10 μM, and the compound I was incubated at 1 μM and 10 μM. The concentrations of the compounds in plasma and a buffer solution after dialysis were determined through LC-MS/MS analysis. The free moiety is defined as a ratio of the concentration in the buffer solution to the concentration in the plasma.

half-life at 1 μM [1] [h]	Human inherent CL [1] [mL/min/kg]	IC50 (JAK2 kinase) [nM]	Unbound moiety (% human plasma) [2] [%]	Compound
> 4	<5.17	< 10	28.8	N#CCC(C1CCCC1O)n1cc(-c2ncnc3[nH]ccc23)c(N)n1 (stereo not shown) [Compound II, 3-[3-amino-4-(7H-pyrrolo[2,3-d]pyrimidin-4-yl)-1H-pyrazol-1-yl]-3-(2-hydroxylcyclopentyl)propionitrile]
> 4	<5.17	< 10	30.4	N#CCC(C1CCC(=O)C1)n1cc(-c2ncnc3[nH]ccc23)c(N)n1 (stereo not shown) [Compound III, 3-[3-amino-4-(7H-pyrrolo[2,3-d]pyrimidin-4-yl)-1H-pyrazol-1-yl]-3-(3-oxocyclopentyl)propionitrile]
> 4	<5.17	< 30	24.3	N#CCC(C1CCCC1=O)n1cc(-c2ncnc3[nH]ccc23)c(N)n1 (stereo not shown) [Compound IV, 3-[3-amino-4-(7H-pyrrolo[2,3-d]pyrimidin-4-yl)-1H-pyrazol-1-yl]-3-(2-oxocyclopentyl)propionitrile]
2.76				N#CC[C@H](C1CCCC1)n1cc(-c2ncnc3[nH]ccc23)c(N)n1 [Compound I^a, (3R)-3-[3-amino-4-(7H-pyrrolo[2,3-d]pyrimidin-4-yl)-1H-pyrazol-1-yl]-3-cyclopentylpropionitrile]
